Assay results as given in US20230364175A1 (priority 2022, published 2023).
In brackets after ≈: the same amount, converted by molar mass. Read-outs that look alike come from different tables or passages of the source.

Experiments:
physchem = format: physicochemical
Excerpt: (§1) In some embodiments, the one or more organic compounds includes cyclodextrin or a cyclodextrin derivative. In some embodiments, the one or more organic compounds includes hydroxypropyl-beta-cyclodextrin (HPBCD). In some embodiments, HPBCD is provided in a concentration ranging from about 0.49 to about 0.55 wt. %, including, for example, 0.50%, 0.51%, 0.52%, 0.53%, and 0.54%. […] The low solubility of melatonin can lead to limited absorption and bioavailability. With the addition of HPBCD, the solubility of melatonin is improved to about 10 mg/mL. In an aqueous solution in which HPBCD is present at a concentration ranging from about 0.49 to about 0.55 wt. %, HPBCD monomers have a hydrodynamic size of 10 nm and aggregates of HPBCD form up to 100 nm in diameter (measured via dynamic light scattering).

log P of melatonin = format: physicochemical
Excerpt: as §1

COc1ccc2[nH]cc(CCNC(C)=O)c2c1 [melatonin] showed a solubility (physchem) of roughly 100 µg/mL (≈ 0.431 mM), a solubility (physchem; aqueous with cosolvent or surfactant or cyclodextrin) of roughly 10000 µg/mL (≈ 43.1 mM) and a logP (log P of melatonin) of 1.6.
